{"source": "patent US8541670B2", "about": "“Compositions and methods for inhibiting tumor cell growth” (priority 2007, dated 2013)", "key": {"PKAc": {"biological_target": "T1, PKAc (Homo sapiens, UniProt P17612)", "T1 construct": "purchased Upstate Biotechnology", "assay": "Independent kinase assays on catalytic activity of PKAc", "format": "biochemical", "description": "Of particular interest with regard to inhibitory activity toward AKT was peptide […](SEQ ID NO:60) which flanked the Thr-197 phosphorylation site of PKAc. […] Furthermore, the inhibitory effect of ZaTa peptide was compared with an adjacent peptide ([…] SEQ ID NO:59), a peptide that overlaps with the 11 N-terminal amino acid residues of the ZaTa peptide and carries the Thr-197 phosphorylation site. In this assay, the level of incorporation of −^32 P into Ser-21 GSK-3[…] substrate peptide was used as the measure of AKT1 in vitro catalytic activity.\nFor non-radioactive kinase assays, typically 25 ng of active AKT1 or PKAc (Upstate Biotechnology) was used in a kinase assay reaction buffer (20 mM MOPS, pH 7.2, 25 mM […]-glycerophosphate, 5 mM EGTA, 1 mM Na3VO4, 1 mM dithiothreitol, 75 mM MgCl2, and 0.5 mM ATP) in the presence of either 1 μL of Ser-9 GSK-3 GST fusion protein (Cell Signaling), or recombinant DARPP-32 (10 μg). […] A 5 μL aliquot of the reaction was transferred to phosphocellulose paper, washed for 30 minutes with dH2O, and CPM of samples read in scintillation counter."}, "p70S6K": {"biological_target": "T2, p70S6K (Homo sapiens, UniProt P23443)", "T2 construct": "endogenous in cells", "T2 sequence (P23443 whole entry)": "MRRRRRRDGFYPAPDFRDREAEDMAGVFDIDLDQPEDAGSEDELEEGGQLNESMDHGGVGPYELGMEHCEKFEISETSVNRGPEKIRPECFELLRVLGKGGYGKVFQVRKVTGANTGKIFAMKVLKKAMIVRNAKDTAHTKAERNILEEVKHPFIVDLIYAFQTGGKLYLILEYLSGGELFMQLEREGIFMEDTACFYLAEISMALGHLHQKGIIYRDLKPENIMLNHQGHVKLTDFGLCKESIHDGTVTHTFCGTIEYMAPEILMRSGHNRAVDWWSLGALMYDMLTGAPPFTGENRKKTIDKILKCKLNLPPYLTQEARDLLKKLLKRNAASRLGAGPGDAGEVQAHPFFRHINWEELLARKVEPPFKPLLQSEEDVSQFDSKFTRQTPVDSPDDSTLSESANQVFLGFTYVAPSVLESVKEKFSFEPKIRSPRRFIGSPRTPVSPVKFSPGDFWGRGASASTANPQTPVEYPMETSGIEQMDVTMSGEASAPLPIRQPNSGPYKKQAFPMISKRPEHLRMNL", "assay": "In vitro kinase assay p70S6K", "format": "biochemical", "conditions": "ten times higher concentration than 0.1 μM", "experimental": "As a specific substrate, the phosphorylation level of GSK-3[…] at Ser-9 was also evaluated. […] The decrease was specific to the AKT phosphorylation site on GSK-3[…] at Ser-9, since a change in the phosphorylation level of GSK-3[…] at Tyr-216 or GSK-3[…] at Tyr-279 was not observed. Moreover, the in vivo reduction of the phosphorylation of AKT substrates was more obvious at the injection site, since a significant change in the phosphorylation of AKT substrates in the frontal cortex or cerebellum between the two hemispheres was not observed. […] To test the specificity/selectivity of ZaTa as the inhibitor of AKT1 versus the other major kinases, a series of in vitro kinase assays was performed at IC50 for AKT1 and at ten times higher concentrations. A panel of the following 32 kinases was first tested in vitro using the active form of each kinase and a specific substrate: AKT2, AKT3, PKA, PKC[…], PKC, PI3K[…], PI3K[…], PI3K, SGK, PAK2, PAK3, SAPK2/p38, Abl, CaMKII, CDK1/cyclinB, CDK5/p35, CK1, CK2, CSK, GSK3[…], GSK3[…], JNK1[…]1, MAPK1, p70S6K, PDGFR[…], PDGFR[…], PDK1, PKG1[…], TrkB, JAK2, JAK3, and Syk. […] However, at ten times higher concentration, ZaTa inhibited AKT2 (63%), PI3K[…] (72%), p70S6K (64%), SGK (73%), PAK3 (83%), JAK3 (79%), TrkB (84%), and Abl (42%). […]"}, "N2a cells": {"tested_on": "N2a cells", "assay": "Neurite count and live imaging of N2a neurons", "format": "cell-based", "experimental": "Accordingly, the stability and phenotypic consequences of the AKT-PKAc complex was also analyzed in cultured neurons. N2a cells were treated with vehicle, ZaTa or control peptide for 24 hours. Media was removed after the 24-hour treatment and an equal number of cells from each treatment group was either cultured for another 24 hours without treatment, or lysed and subjected to immunoprecipitation with an antibody against AKT. Those cells cultured for another 24 hours were also harvested and subjected to immunoprecipitation. In parallel, the number of individual neurons with neurites was counted. […] Live images of N2a neurons were captured following treatment with vehicle or ZaTa (2 or 5 μM). […] ZaTa-mediated changes included a progressive loss of neurites, inhibition of new neurite formation, loss of cell motility, as well as formation of large cell colonies."}, "[1]": {"conditions": "mouse, in vivo"}}, "note": "Where no end group is shown, it is not given here."}
{"sequence": "AKRVKGRTWTLCGTPEY [ZaTa]", "values": [{"measurement": "inhibitory effect on catalytic activity of PKAc", "setting": "PKAc", "result": "did not exhibit any inhibitory effect"}, {"measurement": "inhibition of p70S6K", "setting": "p70S6K", "result": 64, "unit": "%"}, {"measurement": "morphology of N2a neurons, live images", "setting": "N2a cells; 2 or 5 μM", "result": "dramatic morphological changes"}, {"measurement": "reversibility of neurite reduction", "setting": "N2a cells; 24-hour incubation in the absence of ZaTa", "result": "reversible"}, {"measurement": "number of neurons with neurites", "setting": "N2a cells; 24-hour treatment", "result": "significant reduction"}, {"measurement": "distribution and absorption throughout brain tissue", "setting": "[1]", "result": "efficient distribution and absorption"}]}
